Assay results from patent US4495188A, “Acylaminoquinazoline derivatives and a pharmaceutical composition containing them” (Sankyo Company Limited, priority 1980, dated 1985).
pIC50: −log10 of the molar value. Counter-ions that a name gives are not always drawn. Like-named read-outs stand apart in the source and are kept apart here.

Assays:
[1] = biological target: T1, angiotension I-converting enzyme (ACE) (Oryctolagus cuniculus, UniProt P12822); experiment: Measurement of inhibitory activity against the angiotension I-converting enzyme (ACE), hippuryl-l-histidyl-l-leucine as substrate; assay type: biochemical, rabbit
T1 construct: The ACE solution was prepared by homogenizing 5 g of acetone powders of rabbit lungs; tissue Sigma Chemical Co; host or cells: rabbit lung (acetone powder, borate buffer extract, 40,000 G supernatant)
T1 sequence (P12822 34-1310): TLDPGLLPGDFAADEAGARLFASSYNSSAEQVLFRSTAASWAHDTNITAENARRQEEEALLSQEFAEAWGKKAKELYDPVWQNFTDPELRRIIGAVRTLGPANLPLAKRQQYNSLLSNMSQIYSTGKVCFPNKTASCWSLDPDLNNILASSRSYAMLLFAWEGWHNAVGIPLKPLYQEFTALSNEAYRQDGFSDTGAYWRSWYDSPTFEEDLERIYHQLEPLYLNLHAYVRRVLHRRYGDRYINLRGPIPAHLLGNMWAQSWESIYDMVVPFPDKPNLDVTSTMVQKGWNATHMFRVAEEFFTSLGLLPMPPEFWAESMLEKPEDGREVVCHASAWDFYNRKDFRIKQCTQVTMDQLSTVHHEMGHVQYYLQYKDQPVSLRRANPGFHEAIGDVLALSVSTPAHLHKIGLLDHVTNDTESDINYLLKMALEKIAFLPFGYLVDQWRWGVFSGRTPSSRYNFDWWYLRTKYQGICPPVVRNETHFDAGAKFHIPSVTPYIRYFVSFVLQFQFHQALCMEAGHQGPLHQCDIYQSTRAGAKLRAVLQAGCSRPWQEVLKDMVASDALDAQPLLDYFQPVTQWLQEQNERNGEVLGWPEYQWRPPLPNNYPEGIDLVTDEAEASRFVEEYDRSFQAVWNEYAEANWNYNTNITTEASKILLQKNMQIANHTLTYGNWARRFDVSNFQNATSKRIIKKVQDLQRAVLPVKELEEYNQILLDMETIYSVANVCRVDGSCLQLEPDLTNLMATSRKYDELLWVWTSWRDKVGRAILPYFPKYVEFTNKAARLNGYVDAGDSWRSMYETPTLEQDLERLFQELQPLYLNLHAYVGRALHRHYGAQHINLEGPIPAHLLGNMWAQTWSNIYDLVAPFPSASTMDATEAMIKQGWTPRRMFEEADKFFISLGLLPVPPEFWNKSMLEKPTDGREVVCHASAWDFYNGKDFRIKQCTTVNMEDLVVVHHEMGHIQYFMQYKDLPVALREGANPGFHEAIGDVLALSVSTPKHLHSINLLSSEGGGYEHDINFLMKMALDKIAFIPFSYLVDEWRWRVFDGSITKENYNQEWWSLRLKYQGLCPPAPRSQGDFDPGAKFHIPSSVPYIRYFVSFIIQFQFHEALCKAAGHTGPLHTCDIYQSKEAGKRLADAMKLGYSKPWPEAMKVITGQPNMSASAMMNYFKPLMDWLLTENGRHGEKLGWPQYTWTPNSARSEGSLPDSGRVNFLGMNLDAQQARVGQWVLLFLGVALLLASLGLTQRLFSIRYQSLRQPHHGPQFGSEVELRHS
Description: The inhibitory activities of compounds of the invention and of the known compound, prazosin, against the angiotension I-converting enzyme (ACE) were measured by the method of D. W. Cushman and H. S. Cheung [Biochem. Pharmacol. 20, 637 (1971)], using hippuryl-l-histidyl-l-leucine as a substrate. The reaction mixture consisted of 225 μl of a 0.1 M borate buffer solution (pH 8.3) containing 0.4 M sodium chloride, 25 μl of the substrate (12.5 mM solution), 25 μl of a partially purified ACE and 25 μl of a test compound solution (prepared from a 1 mg/ml aqueous acetone solution of the compound). This reaction mixture was maintained at 37° C. for 30 minutes, after which 300 μl of 1N hydrochloric acid were added in order to stop the reaction. 2 ml of ehtyl acetate were then added and the mixture was stirred for 10 seconds and then centrifuged at 3,000 rpm for 5 minutes. 1.5 ml of the ethyl acetate layer was separated and concentrated by evaporation to dryness. The residue was dissolved in 1 ml of distilled water and the quantity of hippuric acid in this solution was measured from its absorbance at 228 mμ, using a spectrophotometer.
The ACE solution was prepared by homogenizing 5 g of acetone powders of rabbit lungs (a product of Sigma Chemical Co., U.S.A., prepared by homogenizing rabbit lungs in a buffer solution and separating out the enzymes precipitated with acetone) in 50 ml of a borate buffer solution (pH 8.3), centrifuging the mixture at 40,000 G for 30 minutes and then separating the supernatant.
The inhibitory activity against ACE was calculated from the formula: [formula] in which Ac is the absorbance of the control and As is the absorbance of the sample. Inhibition curves were made for each sample by measuring the inhibitory activity at five different concentrations, prepared by two-fold dilutions. The IC50 values, which are the molar concentrations of the compounds required to inhibit the ACE activity by 50%, were calculated for each compound.

hypertensive animals = details: reported by Cushman et al.; cited from earlier work
[2] = tested on: angiotensin I-converting enzyme; details: reported by Cushman et al.; cited from earlier work
[3] = pH 8.3, 37° C., 30 minutes, partially purified ACE from rabbit lungs, read-out: Inhibitory concentration IC50

SMILES | pIC50 [1, 3] | further results
CCOC(=O)N1CCN(c2nc(NC(=O)C3CSCN3C(=O)C(C)CSC(C)=O)c3cc(OC)c(OC)cc3n2)CC1 (racemic) [Example 6, 4-[3-(DL-3-Acetylthio-2-methylpropanoyl)thiazolidine-4-carbonyl]amino-2-(4-ethoxycarbonyl-1-piperazinyl)-6,7-dimethoxyquinazoline hydrochloride hemihydrate] | 5.85 | 
CCOC(=O)N1CCN(c2nc(NC(=O)[C@@H]3CCCN3C(=O)[C@H](C)CSC(C)=O)c3cc(OC)c(OC)cc3n2)CC1 [Example 1, 4[1-(D-3-Acetylthio-2-methylpropanoyl)-L-prolyl]amino-2-(4-ethoxycarbonyl-1-piperazinyl)-6,7-dimethoxy-quinazoline hydrochloride hemihydrate] | 6.38 | 
COc1cc2nc(N3CCN(C(=O)c4ccco4)CC3)nc(NC(=O)[C@@H]3CCCN3C(=O)[C@H](C)CSC(C)=O)c2cc1OC [Example 7, 4-[1-(D-3-Acetylthio-2-methylpropanoyl)-L-prolyl]amino-2-[4-(2-furoyl)-1-piperazinyl]-6,7-dimethoxyquinazoline.hydrochloride.hydrate] | 6.51 | 
COc1ccc(C(=O)N2CCN(c3nc(NC(=O)[C@@H]4CCCN4C(=O)[C@H](C)CSC(C)=O)c4cc(OC)c(OC)cc4n3)CC2)cc1OC [Example 5, 4-[1-(D-3-Acetylthio-2-methylpropanoyl)-L-prolyl]amino-2-(4-(3,4-dimethoxybenzoyl)-1-piperazinyl]-6,7-dimethoxy-quinazoline hydrochloride sesquihydrate] | 6.58 | 
C/C=C/C(=O)N1CCN(c2nc(NC(=O)[C@@H]3CCCN3C(=O)[C@H](C)CSC(C)=O)c3cc(OC)c(OC)cc3n2)CC1 [Example 2, 4[1-(D-3-Acetylthio-2-methylpropanoyl)-L-prolyl]amino-2-(4-crotonoyl-1-piperazinyl)-6,7-dimethoxyquinazoline. hydrochloride hydrate] | 6.44 | 
COc1cc2nc(N3CCN(C(=O)C(C)Oc4ccccc4)CC3)nc(NC(=O)[C@@H]3CCCN3C(=O)[C@H](C)CSC(C)=O)c2cc1OC (stereo partly drawn) [Example 3, 4-[1-(D-3-Acetylthio-2-methylpropanoyl)-L-prolyl]amino-6,7-dimethoxy-2[4-(2-phenoxypropionyl)-1-piperazinyl]quinazoline hydrochloride hydrate] | 6.47 | 
COc1cc2nc(N3CCN(C(=O)c4ccco4)CC3)nc(N)c2cc1OC [prazosin, reference compound] |  | pIC50 [1]: ≤ 5.00
C[C@H](CS)C(=O)N1CCC[C@H]1C(=O)O [1-(D-3-mercapto-2-methylpropanoyl)-L-proline] |  | antihypertensive activity (hypertensive animals): exhibits antihypertensive activity; inhibitory activity against the angiotensin I-converting enzyme [2]: potent inhibitory activity
COc1cc2nc(N3CCN(C(=O)c4ccc(OCc5ccccc5)cc4)CC3)nc(NC(=O)[C@@H]3CCCN3C(=O)[C@H](C)CSC(C)=O)c2cc1OC [Example 4, 4-[1-(D-3-Acetylthio-2-methylpropanoyl)-L-prolyl]amino-2-[4-(4-benzyloxybenzoyl)-1-piperazinyl]-6,7-dimethoxy-quinazcline hydrochloride sesquihydrate] | 6.35 | 
